The subject of one series is HIV p24. The series is described as follows: HIV p24 digital immunoassay in culture supernatants. Conditions: Human immunodeficiency virus 1, CD4+ T, read-out: p24 EC50. Type of series: cell-based, HIV-1. As for the experimental part: The fully automated Quanterix HD-X analyzer for single molecule detection was utilized to measure HIV p24 levels in culture supernatants (stored frozen at –80°C until use). Upon thaw, Triton X-100 was added to a final concentration of 1% to culture supernatants, incubated for 1 hour at room temperature before analysis on the same day. An in-house standard using purified HIV p24 protein was utilized in place of the standard provided in the p24 Simoa kit (Quanterix, catalog 102215). Briefly, p24 protein purchased from Advanced Biotechnologies, catalog 14-101-050, was reconstituted to 200 ng/mL in complete RPMI and stored at –80 in smaller aliquots. Standard curve was made in a […] dilution series from 40000 to 1.8 fg/ml in complete RPMI with 1% Triton X-100. All other assay reagents and assay reaction conditions followed the manufacturer’s protocol. p24 concentration in experimental samples was calculated based on a p24 calibration curve with 4-parameter curve fitting.

In series [1] the test system is CD4+ T cells from ART-suppressed people with HIV. Kind of series: Cell viability (Cell Titer Glo). Type of series: cell-based, human. Conditions: 72 hours, doses that activated HIV RNA. As for the experimental part:
Supplementary file ppat.1012874.s011.png: S8 Fig Effect of C-233 on cell viability. CD4^+ T cells from ART-suppressed people with HIV were treated with the indicated C-233 concentrations for 72 hours. Cell viability was assessed using Promega Cell Titer Glo according to manufacturer’s instructions. Bars indicate the means and lines indicate standard deviation from 4 donors, each tested with 8 replicates. (PNG)
In general terms: In ATP-based viability assays light output follows the ATP content of the culture.

For a further series, the target named is PKC-α (Homo sapiens, UniProt P17252). The series is described as follows: PKC isoform translocation in A549-tGFP cells. Type of series: cell-based. On the set-up: host or cells: A549. To be noted: A549-tGFP cells, 60 minutes; read-out: EC50 for PKC-α translocation. As for the experimental part: A description of this effort is reported elsewhere.
Cellular translocation of PKC isoforms upon activation was determined in 8 A549 cell lines, each expressing a single PKC isoform fused to tGFP (PhenoVista Biosciences). Cells were plated in 384-well plates (80 μL/well) at 10^5 cells/mL in RPMI with 10% FBS and rested overnight. PKC agonist(s) were serially diluted at 1:3 steps in DMSO and added to the cells. After 60 minutes in an incubator at 37 °C, 5% CO2, cells were stained with Hoechst-33342 and fixed with 2% paraformaldehyde for 30 minutes at 4 °C. Cells were then stained with wheat germ agglutinin conjugated to AlexaFluor647 (WGA-647) for 10 minutes at 4 °C, washed to remove excess dye and imaged with Cellomics Array Scan (Thermo Fisher) at room temperature (RT). Images were analyzed using Cellomics automated image analysis algorithm. Plasma membrane translocation was quantified using the ratio between the average fluorescence in the areas at the cell edge defined by WGA-647 and the cytoplasm region.

Series [2] deals with classical isoforms PKC-α, PKC-β1, PKC-β2. The series is described as follows: Cell fractionation and western blotting in CD4+ T cells. The series is classed as cell-based. To be noted: 1 hour. As for the experimental part:
(§1) CD4^+ T cells treated with C-232A for 1 hour in a concentration-dependent manner were separated into cytoplasmic and membrane protein fractions using a cell fractionation kit (Cell Signaling Technology, catalog 9038) and protein concentrations quantified using a Pierce BCA assay (Thermo Fisher Scientific, catalog 23227). 4–6 μg of fractionated total protein lysate was fractionated on SDS-PAGE gel using Peggy Sue (Protein Simple). The resulting area under the curve was normalized against β-actin.
(§2) (A) Western blot of PKC isoforms θ, α, β2, and β1 in cytoplasmic and membrane fractions of CD4^+ T cells treated with C-232A. […] Area under the peak generated by western blot analysis of membrane-associated PKC isoforms after treatment and plotted using GraphPad software. AUC plots were used to generate EC50 values (D). (PNG)
A general note: In western blotting, separated proteins are transferred to a membrane and probed.

The target of series [3] is T1, PKC-θ (Homo sapiens, UniProt Q04759). The series is described as above. Conditions: 1 hour. Type of series: cell-based. On the procedure:
as §1, §2

Series [4] is described as follows: Plasma PK in rhesus macaques. Type of series: in vivo, rhesus macaque. Conditions: 0.03, 0.1, 0.3, and 1 mg/kg, slow IV infusion. On the procedure: Male rhesus macaque monkeys (young adult to adult) were sourced from the Covance stock colony for conduct of in vivo studies at Covance Laboratories Inc. (Madison, Wisconsin, USA). Monkeys were administered a single dose of vehicle control (n = 3), 0.03, 0.1, 0.3, or 1 mg/kg of C-232A (n = 1) by intravenous infusion over 30 minutes using a sentinel approach. An additional 2 male monkeys were administered 0.3 mg/kg C232A after it was determined that this was the maximum tolerated dose level. Blood samples were collected through 24 hours postdose. Samples for PK (for measurement of C-232A concentration) and cytokine analysis were processed to plasma and shipped to Gilead Sciences. Activation of CD4^+ T cells was assessed by measuring CD69 expression levels in whole blood by flow cytometry (Covance Laboratories). Samples for clinical pathology were analyzed at Covance Laboratories for hematology, coagulation, and clinical chemistry panels. […] Tissues were then evaluated independently (Experimental Pathology Laboratories, Inc).
Rat and rhesus plasma samples (20 µL aliquot of each) were treated with 100 µL acetonitrile containing a generic internal small-molecule standard. […] The descriptive PK parameters were analyzed using noncompartmental analysis with Phoenix WinNonlin software (version 8.2, Certara USA, Inc.). […]

Series [5] deals with T1, PKC-θ. The series is described as follows: Immunofluorescence of endogenous PKC in Jurkat cells. Type of series: cell-based. Conditions: 30 minutes. On the procedure: Cells were cultured in RPMI medium supplemented with 10% heat-inactivated FBS and penicillin-streptomycin. For treatment, cells were incubated in either DMSO or C-232A for 30 minutes at 37 °C. Cells were fixed in ice-cold methanol, washed, and blocked with 2% BSA for 60 minutes at RT. Blocked cells were stained with either a 5 μg/mL primary PKC-θ antibody (R&D Systems, catalog MAB4368) or a 1:100 primary PKC-α antibody (R&D Systems, catalog MAB5340SP) in PBS with 1% BSA at 22 °C for 90 minutes. Donkey anti-mouse IgG antibody conjugated with Alexa Fluor 647 (Thermo Fisher Scientific, catalog A-31571) at 2 μg/mL and goat anti-rat IgG H&L antibody conjugated with Alexa Fluor 488 (Abcam, catalog ab150157) were used as secondary antibodies, respectively, in PBS with 1% BSA at 22 °C for 60 minutes. After immunostaining, the cell suspension was mixed (1:1) with ProLong Gold antifade reagent containing DAPI (Life Technologies, catalog P36935) and 5 μL of the mix was applied onto a microscope slide, covered with a coverslip, and cured overnight in the dark at RT. Samples were imaged with a Leica SP8 confocal microscope. Image analysis was performed using ImageJ software.

Each structure is given as a SMILES string. pEC50: −log10 of the molar value.

T1 sequence (Q04759 whole entry): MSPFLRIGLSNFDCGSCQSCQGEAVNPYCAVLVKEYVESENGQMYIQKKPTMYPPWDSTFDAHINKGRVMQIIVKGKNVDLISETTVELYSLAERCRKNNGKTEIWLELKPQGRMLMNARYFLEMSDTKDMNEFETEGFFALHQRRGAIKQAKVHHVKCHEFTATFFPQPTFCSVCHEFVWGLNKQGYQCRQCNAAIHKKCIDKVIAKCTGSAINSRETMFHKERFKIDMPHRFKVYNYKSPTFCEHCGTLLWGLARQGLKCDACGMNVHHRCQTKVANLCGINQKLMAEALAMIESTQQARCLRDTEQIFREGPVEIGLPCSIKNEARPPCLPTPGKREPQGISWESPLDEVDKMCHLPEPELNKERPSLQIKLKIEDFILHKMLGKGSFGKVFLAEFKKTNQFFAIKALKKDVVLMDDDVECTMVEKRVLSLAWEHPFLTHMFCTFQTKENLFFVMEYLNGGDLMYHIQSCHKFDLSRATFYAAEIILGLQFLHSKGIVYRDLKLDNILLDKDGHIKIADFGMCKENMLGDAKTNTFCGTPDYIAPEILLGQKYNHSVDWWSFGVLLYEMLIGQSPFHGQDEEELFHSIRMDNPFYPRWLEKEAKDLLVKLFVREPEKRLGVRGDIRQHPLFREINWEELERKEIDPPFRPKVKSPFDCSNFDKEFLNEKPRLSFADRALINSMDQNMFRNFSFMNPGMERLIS

As a reminder, the pEC50 is the EC50 on a negative log10 scale, so that one unit is a factor of ten. As for `Cc1ccc(C#Cc2ccc(C(=O)OCC3(CO)Cc4c(-c5ccccc5)ccnc4O3)cc2)cc1` (stereo not shown) [C-233], the pEC50 in the series with HIV p24 is 6.37. The cell viability entry in series [1] is reported as “without impairing viability”.

Regarding `Cc1ccc(C#Cc2ccc3oc(CC(C)(C)C(=O)OCC4(CO)CC(=CCC(CC(C)C)CC(C)C)C(=O)O4)cc3c2)cc1` (stereo not shown) [C-232A], the pEC50 on PKC-α is < 4.40. For the same molecule, the “translocation of classical isoforms α, β1, β2” value in series [2] was “did not translocate classical isoforms α, β1, or β2”. Further, on PKC-θ [3], the “translocation of PKC-θ from cytoplasm to cell membrane” value was “translocated PKC-θ from the cytoplasm to the cell membrane in a dose-dependent manner”. Also, the PK plasma profile entry in series [4] is reported as “dose-dependent C-232A PK plasma profiles”. Moreover, the “translocation of endogenous PKC-θ from cytoplasm to cell edge” value at PKC-θ [5] is recorded as “efficient translocation of endogenous PKC-θ to the plasmalemma”.

Source of the values: article PMC11801715, “Activating PKC-ε induces HIV expression with improved tolerability” (PLOS Pathogens, 2025).
